24 compounds from US20230011869A1 (Hoffmann-La Roche Inc., priority 2018, published 2023) can be followed below.

Structures can show the parent of a compound that is named as a salt.

For one experiment, the system named is Acinetobacter baumannii ATCC17978. Description: Antimicrobial susceptibility testing: 90% growth inhibitory concentration (IC90) determination, Iso-Sensitest broth. Type of experiment: cell-based. Particulars: 90% growth inhibitory concentration, Acinetobacter baumannii ATCC17978, Iso-Sensitest broth, OD 600 nm over 16 h; read-out: ATCC17978 IC90. Summed up:
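A. baumannii ATCC17978 grown in Iso-Sensitest broth across 10 compound concentrations at 35±2 °C.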
As to `Cc1cc(Nc2nccn3c(-c4ccc(OCC#N)c(F)c4Cl)cnc23)ccc1C(=O)N1CCC(C(=O)N2CCNC[C@@H]2CO)CC1` [Example 207, 2-[3-chloro-2-fluoro-4-[8-[4-[4-[(2R)-2-(hydroxymethyl)piperazine-1-carbonyl]piperidine-1-carbonyl]-3-methyl-anilino]imidazo[1,2-a]pyrazin-3-yl]phenoxy] acetonitrile], the IC90 is 0.17 µM. Still for that read-out and setting: next, `Cc1cc(Nc2nccn3c(-c4ccc(OCC#N)c(F)c4Cl)cnc23)ccc1C(=O)N1CCC(C(=O)N2CCNC[C@H]2CO)CC1` [Example 208, 2-[3-chloro-2-fluoro-4-[8-[4-[4-[(2S)-2-(hydroxymethyl)piperazine-1-carbonyl]piperidine-1-carbonyl]-3-methyl-anilino]imidazo[1,2-a]pyrazin-3-yl]phenoxy] acetonitrile formate]: 0.16 µM; `COc1ccc(-c2cnc3c(Nc4ccc(C(=O)N5CCN(C(=O)[C@H]6CCNC6)CC5)c(C)c4)nccn23)c(Cl)c1F` [Example 210, [4-[[3-(2-chloro-3-fluoro-4-methoxy-phenyl)imidazo[1,2-a]pyrazin-8-yl]amino]-2-methyl-phenyl]-[4-[(3S)-pyrrolidine-3-carbonyl]piperazin-1-yl]methanone formate]: 0.094 µM. The same measure, in the same setting: next, `COc1ccc(-c2cnc3c(Nc4ccc(C(=O)N5CCN(C(=O)C6(O)CCNCC6)CC5)c(C)c4)nccn23)c(Cl)c1F` [Example 215, [4-[[3-(2-chloro-3-fluoro-4-methoxy-phenyl)imidazo[1,2-a]pyrazin-8-yl]amino]-2-methyl-phenyl]-[4-(4-hydroxypiperidine-4-carbonyl)piperazin-1-yl]methanone formate]: 0.15 µM; `COc1ccc(-c2cnc3c(Nc4ccc(C(=O)N5CCN(C(=O)[C@@H]6CCNC[C@H]6O)CC5)c(C)c4)nccn23)c(Cl)c1F` [Example 216, [4-[[3-(2-chloro-3-fluoro-4-methoxy-phenyl)imidazo[1,2-a]pyrazin-8-yl]amino]-2-methyl-phenyl]-[4-[(3S,4R)-3-hydroxypiperidine-4-carbonyl]piperazin-1-yl]methanone formate]: 0.19 µM; `COc1ccc(-c2cnc3c(Nc4ccc(C(=O)N5CCN(C(=O)[C@H]6CCNC[C@H]6O)CC5)c(C)c4)nccn23)c(Cl)c1F` [Example 217, [4-[[3-(2-chloro-3-fluoro-4-methoxy-phenyl)imidazo[1,2-a]pyrazin-8-yl]amino]-2-methyl-phenyl]-[4-[(3S,4S)-3-hydroxypiperidine-4-carbonyl]piperazin-1-yl]methanone]: 0.28 µM. Same read-out and setting: next, `COc1ccc(-c2cnc3c(Nc4ccc(C(=O)N5CCN(C(=O)[C@H]6CCNC[C@@H]6O)CC5)c(C)c4)nccn23)c(Cl)c1F` [Example 219, [4-[[3-(2-chloro-3-fluoro-4-methoxy-phenyl)imidazo[1,2-a]pyrazin-8-yl]amino]-2-methyl-phenyl]-[4-[(3R,4S)-3-hydroxypiperidine-4-carbonyl]piperazin-1-yl]methanone formate]: 0.22 µM.

`CNCC(=O)N1CCN(C(=O)c2ccc(Nc3nccn4c(-c5ccc(OC)c(F)c5)cnc34)cc2C)CC1` [Example 224, 1-(4-(4-((3-(3-fluoro-4-methoxyphenyl)imidazo[1,2-a]pyrazin-8-yl)amino)-2-methylbenzoyl)piperazin-1-yl)-2-(methylamino) ethanone hydrochloride]: the IC90 stood at 0.18 µM. With `Cc1cc(Nc2nccn3c(-c4ccc(OC(F)F)cc4)cnc23)ccc1C(=O)N1CCN(C(=O)CCNC(=N)N)CC1` [Example 225, 1-(3-(4-(4-((3-(4-(difluoromethoxy)phenyl)imidazo[1,2-a]pyrazin-8-yl)amino)-2-methylbenzoyl)piperazin-1-yl)-3-oxopropyl)guanidine], the IC90 worked out at 0.26 µM. On the same count and under the same terms, next, `Cc1cc(Nc2nccn3c(-c4ccc(OC(F)F)cc4)cnc23)ccc1C(=O)N1CCN(C(=O)[C@H](C)N)CC1` [Example 226, (2S)-2-amino-1-[4-[4-[[3-4-(difluoromethoxy)phenyl]imidazo[1,2-a]pyrazin-8-yl]amino]-2-methyl-benzoyl]piperazin-1-yl]propan-1-one hydrochloride]: 0.52 µM.

As to `Cc1cc(Nc2nccn3c(-c4ccc(OCC#N)c(F)c4F)cnc23)ccc1C(=O)N1CCN(C(=O)[C@@H]2C[C@](C)(O)CN2)CC1` [Example 230, 2-[2,3-difluoro-4-[8-[4-[4-[(2S,4S)-4-hydroxy-4-methyl-pyrrolidine-2-carbonyl]piperazine-1-carbonyl]-3-methyl-anilino]imidazo[1,2-a]pyrazin-3-yl]phenoxy] acetonitrile formate], the IC90 amounted to 0.063 µM. Same read-out and setting: the value for `CC[C@]1(O)CN[C@H](C(=O)N2CCN(C(=O)c3ccc(Nc4nccn5c(-c6ccc(OCC#N)c(F)c6F)cnc45)cc3C)CC2)C1` [Example 232, 2-[4-[8-[4-[4-[(2S,4R)-4-ethyl-4-hydroxy-pyrrolidine-2-carbonyl]piperazine-1-carbonyl]-3-methyl-anilino]imidazo[1,2-a]pyrazin-3-yl]-2,3-difluoro-phenoxy]acetonitrile formate] was 0.083 µM; that for `Cc1cc(Nc2nccn3c(-c4ccc(OC(C)C#N)c(F)c4F)cnc23)ccc1C(=O)N1CCN(CCCN(C)C)CC1` (stereo not drawn) [Example 237, 2-[4-[8-[4-[4-[3-(dimethylamino)pro-pyl]piperazine-1-carbonyl]-3-methyl-anilino]imidazo[1,2-a]pyrazin-3-yl]-2,3-difluoro-phenoxy]propanenitrile formate] was 0.37 µM. As to `Cc1cc(Nc2nccn3c(-c4ccc(OC(C)C#N)c(F)c4F)cnc23)ccc1C(=O)N1CCN(CCN(C)C)CC1` (stereo not drawn) [Example 238, 2-[4-[8-[4-[4-[2-(dimethylamino)ethyl]piperazine-1-carbonyl]-3-methyl-anilino]imidazo[1,2-a]pyrazin-3-yl]-2,3-difluoro-phenoxy]propanenitrile; 2,2,2-trifluoroacetic acid], the IC90 is 0.21 µM.

For the compound `Cc1cc(Nc2nccn3c(-c4ccc(O[C@@H](C)C#N)c(F)c4F)cnc23)ccc1C(=O)N1CCN(CCN(C)C)CC1` [Example 240, ((2S)-2-[4-[8-[4-[4-[2-(dimethylamino)ethyl]piperazine-1-carbonyl]-3-methyl-anilino]imidazo[1,2-a]pyrazin-3-yl]-2,3-difluoro-phenoxy]propanenitrile formate], the IC90 was 0.11 µM. Still for that read-out and setting: next, `CCc1cc(Nc2nccn3c(-c4ccc(OC)c(F)c4)cnc23)ccc1C(=O)N1CCC(C(=O)O)CC1` [Example 241, 1-(2-Ethyl-4-((3-(3-fluoro-4-methoxyphenyl)imidazo[1,2-a]pyrazin-8-yl)amino)benzoyl)piperidine-4-carboxylic acid]: 2.2 µM; `CNCCCNC(=O)C1CCN(C(=O)c2ccc(Nc3nccn4c(-c5ccc(OCC#N)c(F)c5F)cnc34)cc2C)CC1` [Example 242, 1-(4-((3-(4-(cyanomethoxy)-2,3-difluorophenyl)imidazo[1,2-a]pyrazin-8-yl)amino)-2-methylbenzoyl)-N-(3-(methylamino)propyl)piperidine-4-carboxamide]: 0.17 µM. On the same count and under the same terms, the value for `Cc1cc(Nc2nccn3c(-c4ccc(OC(F)F)cc4)cnc23)ccc1C(=O)N1CCN(C(=O)Nc2ccncc2)CC1` [Example 245, 4-[4-[[3-[4-(difluoromethoxy)phenyl]imidazo[1,2-a]pyrazin-8-yl]amino]-2-methyl-benzoyl]-N-(4-pyridyl)piperazine-1-carboxamide] was 0.12 µM. With `Cc1cc(Nc2nccn3c(-c4ccc(OCC#CCO)c(F)c4)cnc23)ccc1C(=O)N1CCC(CCN)CC1` [Example 246, [4-(2-aminoethyl)-1-piperidyl]-[4-[[3-[3-fluoro-4-(4-hydroxybut-2-ynoxy)phenyl]imidazo[1,2-a]pyrazin-8-yl]amino]-2-methyl-phenyl]methanone], the IC90 stood at 0.092 µM. The same measure, in the same setting: the value for `COc1ccc(-c2cnc3c(Nc4ccc(C(=O)N5CCCC(CN(C)C)C5)c(C)c4)nccn23)cc1F` (stereo not drawn) [Example 252, [3-[(dimethylamino)methyl]pi-peridin-1-yl]-[4-[[3-(3-fluoro-4-methoxyphenyl)imidazo[1,2-a]pyrazin-8-yl]amino]-2-methylphenyl]methanone] was 2 µM.

The experiment is the same for the next values; noted with them: Acinetobacter baumannii, ATCC17978, 16 h, read-out: ATCC17978 IC90, 90% growth inhibitory concentration, Acinetobacter baumannii ATCC17978, Iso-Sensitest broth, OD 600 nm over 16 h.
On to `Cc1cc(Nc2nccn3c(-c4ccc(O[C@H](C)C#N)c(F)c4F)cnc23)ccc1C(=O)N1CCN(CCN(C)C)CC1` [Example 239, (2R)-2-[4-[8-[4-[4-[2-(dimethylamino)ethyl]piperazine-1-carbonyl]-3-methyl-anilino]imidazo[1,2-a]pyrazin-3-yl]-2,3-difluoro-phenoxy]propanenitrile formate], for which the IC90 came out at 0.79 µM. The same measure, in the same setting: next, `Cc1cc(Nc2nccn3c(-c4ccc(OCC#CCN)c(F)c4)cnc23)ccc1C(=O)N1CCC(CN)CC1` [Example 247, [4-[[3-[4-(4-aminobut-2-ynoxy)-3-fluoro-phenyl]imidazo[1,2-a]pyrazin-8-yl]amino]-2-methyl-phenyl]-[4-(aminomethyl)-1-piperidyl]methanone; formic acid]: 0.87 µM; `Cc1cc(Nc2nccn3c(-c4ccc(OC(F)F)cc4)cnc23)ccc1C(=O)N1CCN(C(=O)[C@H]2C[C@@H](N)C2)CC1` [Example 249, [4-(3-aminocyclobutanecarbonyl)piperazin-1-yl]-[4-[[3-[4-(difluoromethoxy)phenyl]imidazo[1,2-a]pyrazin-8-yl]amino]-2-methyl-phenyl]methanone hydrochloride]: 0.18 µM; `Cc1cc(Nc2nccn3c(-c4ccc(OC(F)F)cc4)cnc23)ccc1C(=O)N1CCN(C(=O)[C@H]2C[C@H](N)C2)CC1` [Example 250, [4-(3-aminocyclobutanecarbonyl)piperazin-1-yl]-[4-[[3-[4-(difluoromethoxy)phenyl]imidazo[1,2-a]pyrazin-8-yl]amino]-2-methyl-phenyl]methanone hydrochloride]: 0.16 µM.
